How the values were obtained:
ARF1^WT (Δ17ARF1) [1] = biological target: T1, ARF1^WT (Δ17ARF1) (Homo sapiens, UniProt P84077); test: protein thermal shift (SYPRO Orange); intact-protein and tandem MS; assay type: binding; details: […] protein, covalent at C159
T1 construct: N-terminally truncated (first 17 residues removed), His6-tag (pProEX HTb), E. coli BL21-CodonPlus (DE3)-RIPL

ARF1^WT (Δ17ARF1) [2] = biological target: T2, ARF1^WT (Δ17ARF1) (Homo sapiens, UniProt P84077, C159A); test: protein thermal shift (SYPRO Orange); assay type: binding; details: no covalent adduct by mass spectrometry
T2 construct: N-terminally truncated (first 17 residues removed), His6-tag (pProEX HTb), E. coli BL21-CodonPlus (DE3)-RIPL
T2 sequence (P84077 18-181 C159A): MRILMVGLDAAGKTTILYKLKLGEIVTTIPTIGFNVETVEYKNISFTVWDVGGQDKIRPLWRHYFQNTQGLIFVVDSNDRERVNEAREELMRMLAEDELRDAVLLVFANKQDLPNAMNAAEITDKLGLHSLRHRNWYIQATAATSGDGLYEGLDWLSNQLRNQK
Source text: protein thermal shift (SYPRO Orange) on ARF1^WT (Δ17ARF1) | PPIs with ARF1^C159A where C159 was mutated to alanine. No Tm shifts were observed

ARF1^WT (Δ17ARF1) [3] = biological target: T1, ARF1^WT (Δ17ARF1); test: GDP/MANT-GTP nucleotide exchange, fluorescence; assay type: biochemical; details: exchange catalysed by […] human ARNO Sec7 ([…]-250)
RNF130 = biological target: T3, RNF130 (Homo sapiens, UniProt Q86XS8); test: ITC; assay type: binding; details: […] RNF130 in cell, […] compound injected; N = […]
T3 construct: residues 1-304, C-terminal His8-Flag tag kept, expressed in Expi-293F
T3 sequence (Q86XS8 28-304 limits assumed): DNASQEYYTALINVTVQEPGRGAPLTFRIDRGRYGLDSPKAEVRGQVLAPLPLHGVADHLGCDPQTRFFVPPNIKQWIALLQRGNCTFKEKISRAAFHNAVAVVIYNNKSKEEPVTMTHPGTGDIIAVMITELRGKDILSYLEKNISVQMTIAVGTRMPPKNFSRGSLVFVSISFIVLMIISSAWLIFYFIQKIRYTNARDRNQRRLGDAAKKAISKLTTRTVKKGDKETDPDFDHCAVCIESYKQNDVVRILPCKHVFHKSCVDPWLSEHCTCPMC

SPOP^MATH = biological target: T4, SPOP^MATH (Homo sapiens, UniProt O43791); test: fluorescence polarization, displacement of FITC-puc_SBC1 peptide; assay type: binding
T4 construct: MATH domain, residues 28-166; GST tag cut with PreScission protease; E. coli BL21-CodonPlus (DE3)-RIPL
T4 sequence (O43791 28-166): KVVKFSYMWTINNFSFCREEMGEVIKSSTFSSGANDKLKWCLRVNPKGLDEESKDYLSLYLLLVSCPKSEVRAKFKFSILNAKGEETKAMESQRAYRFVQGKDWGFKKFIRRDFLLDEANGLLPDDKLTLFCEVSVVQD

T1 sequence (P84077 18-181, stated change not applied): as the sequence (P84077 18-181 C159A) above, with A142C counted along it

Compound: COCCCOc1ccnc(C[S+]([O-])c2nc3ccccc3[nH]2)c1C (stereo not drawn) [rabeprazole]
- Tm shift (ARF1^WT (Δ17ARF1) [1]; no DTT; […] compound): PPIs could bind directly to wild-type ARF1 (ARF1^WT) and destabilize the protein
- Tm shift (ARF1^WT (Δ17ARF1) [2]): PPIs with ARF1^C159A where C159 was mutated to alanine. No Tm shifts were observed
- GDP/MANT-GTP nucleotide exchange, fluorescence (ARF1^WT (Δ17ARF1) [3]): rabeprazole suppressed the nucleotide exchange process in a concentration-dependent manner

Compound: CS(=O)(=O)c1nnc(CN2C3C=C(c4ccccc4)CC2CC3)s1 (stereo not drawn) [iRNF130-63]
- Kd (RNF130): 1.23 µM

Compound: Cc1c(OCC(F)(F)F)ccnc1C[S+]([O-])c1nc2ccccc2[nH]1 (stereo not drawn) [lansoprazole]
- Tm shift (ARF1^WT (Δ17ARF1) [1]; no DTT): PPIs could bind directly to wild-type ARF1 (ARF1^WT) and destabilize the protein

Compound: C=CC1=C(C(=O)O)N2C(=O)[C@@H](NC(=O)CCC3CCCC3)[C@H]2SC1 [222A5, (6R,7R)−7-(3-cyclopentylpropanamido)−8-oxo-3-vinyl-5-thia-1-azabicyclo[4.2.0]oct-2-ene-2-carboxylic acid]
- IC50 (SPOP^MATH): > 100 µM

Compound: COc1ccnc(C[S+]([O-])c2nc3cc(OC(F)F)ccc3[nH]2)c1OC (stereo not drawn) [pantoprazole]
- Tm shift (ARF1^WT (Δ17ARF1) [1]; no DTT): PPIs could bind directly to wild-type ARF1 (ARF1^WT) and destabilize the protein

Compound: Cc1nnc(SCC2=C(C(=O)O)N3C(=O)C(NC(=O)c4ccc(COc5ccccc5Cl)o4)C3SC2)s1 (stereo not drawn) [221C7]
- IC50 (SPOP^MATH): 4.51 µM

Compound: COc1ccc2[nH]c([S+]([O-])Cc3ncc(C)c(OC)c3C)nc2c1 (stereo not drawn) [omeprazole]
- Tm shift (ARF1^WT (Δ17ARF1) [1]; no DTT): PPIs could bind directly to wild-type ARF1 (ARF1^WT) and destabilize the protein
